Assays:
[1] = tested on: Mycobacterium; conditions: 200 ppm gNO, saline suspension; cited from earlier work
[2] = tested on: S. aureus (ATCC); conditions: 200 ppm gNO, saline suspension; cited from earlier work
[3] = tested on: inflammatory cytokines; assay: Phase I safety study: plasma cytokine levels by cytokine bead array; assay type: in vivo, human; conditions: vs baseline
Description: (§1) After obtaining informed consent, treatment was initiated within 5 days of enrollment. Subjects were housed in a hospital ward and received 160 ppm gNO for 30 minutes every four hours (Q4 h), five times a day, for five consecutive days by inhalation. Subjects returned for follow-up evaluations 3, 7 and 21 days after the final gNO administration. Subject safety was determined by monitoring vital signs, methemoglobin levels, lung function, blood chemistry, hematology, prothrombin time, inflammatory cytokine/chemokines levels and endothelial activation.
(§2) Hematological assessment included a complete blood count and differentials (hemoglobin, hematocrit, red blood cell count, white blood cell count, white blood cell differential, and platelet count) were obtained in order to monitor blood chemistry, hematology and inflammation measurements. The blood chemistry profile included serum creatinine, and liver function tests such as aspartate aminotransferase (AST) serum glutamic oxaloacetic transaminase (SGOT), alkaline phosphatase, and gamma-glutamyl transferase (GGT). The effect of gNO on coagulation was determined by the prothrombin time (PT) and its derived measures of prothrombin ratio (PR) and international normalized ratio (INR). Heparinized plasma was collected at baseline and on days 1, 2, 4, and 5 of gNO administration, and on follow-up days 3, 7 and 21 and frozen at −80° C. Plasma cytokine levels were assessed using the human inflammation cytokine bead array kit (BD Bioscience, Canada). Plasma levels of angiopoietin Ang-1 and Ang-2 were determined by ELISA (R&D Systems, USA).

[4] = tested on: Group B Streptococci; conditions: 200 ppm gNO, saline suspension; cited from earlier work
[5] = tested on: Pseudomonas aeruginosa; conditions: inhaled, intermittent 30 minute exposures, 160 ppm gNO; cited from earlier work
[6] = tested on: S. aureus (Clinical); conditions: 200 ppm gNO, saline suspension; cited from earlier work
[7] = Phase I safety study: hematology, clinical chemistry and coagulation; assay type: in vivo, human; conditions: end of study; baseline 0.15; p=0.104
Description: as §1
Hematological assessment included a complete blood count and differentials (hemoglobin, hematocrit, red blood cell count, white blood cell count, white blood cell differential, and platelet count) were obtained in order to monitor blood chemistry, hematology and inflammation measurements. […] The effect of gNO on coagulation was determined by the prothrombin time (PT) and its derived measures of prothrombin ratio (PR) and international normalized ratio (INR). […] Plasma cytokine levels were assessed using the human inflammation cytokine bead array kit (BD Bioscience, Canada). Plasma levels of angiopoietin Ang-1 and Ang-2 were determined by ELISA (R&D Systems, USA).

[8] = tested on: Enterobacter sp.; conditions: 200 ppm gNO, saline suspension; cited from earlier work
[9] = tested on: E. Coli; conditions: 200 ppm gNO, saline suspension; cited from earlier work
[10] = Phase I safety study: pulmonary function tests; assay type: in vivo, human
Description: as §1
Subjects underwent full pulmonary function tests (PFT), including lung diffusing capacity (DLCO) by a trained technician utilizing a calibrated pulmonary function system (Jaeger MasterScreen, VIASYS Healthcare, USA) on screening and days 2, 8, 12 and 26. Spirometry test (Microloop by Micro Medical, England) was performed on days 1, 3 and 4. Effect of gNO on lung function and DLCO was determined by changes from baseline, treatment days and follow up days.

[11] = tested on: P. aeruginosa (ATCC); conditions: 200 ppm gNO, saline suspension; cited from earlier work
[12] = continuous delivery of 80 ppm gNO; cited from earlier work
[13] = tested on: five planktonic species of methicillin resistant S. aureous (MRSA); conditions: exposure to 1,600 ppm hours of gNO; cited from earlier work
[14] = Phase I safety study: serum nitrite/nitrate by Griess reagent; assay type: in vivo, human; conditions: during the trial, 160 ppm gNO
Description: as §1
These parameters were measured continuously during every gNO administration course and for 3.5 hours after the first treatment of the day. Daily serum samples were collected and frozen at −80° C. and the serum […] level was measured using the Griess reagent.

[15] = tested on: vascular endothelial activation factors Ang-1 and Ang-2; assay: Phase I safety study: plasma angiopoietin Ang-1 and Ang-2; assay type: in vivo, human; conditions: vs baseline
Description: as §1, §2

[16] = tested on: all microorganisms tested; conditions: 200 ppm gNO, cited from earlier work
[17] = tested on: Serracia sp.; conditions: 200 ppm gNO, saline suspension; cited from earlier work
[18] = intermittent gNO inhalation; cited from earlier work
[19] = Phase I safety study: oxygen saturation (SpO2) by pulse oximeter; assay type: in vivo, human
Description: as §1
Abbreviated physical examination by a registered nurse was carried out each day prior to initiation of treatments on days 1-5. Oxygenation was measured with a pulse oximeter (Rad 57, Masimo Corporation, USA) which was used according to manufacturer's guidelines to measure functional oxygen saturation of arterial hemoglobin (SpO2) and heart rate. These parameters were measured continuously during every gNO administration and for 3.5 hours after the first treatment of the day.

[20] = vs baseline during the course of the study
[21] = saline suspension, average over the bacteria of Table 1

[N]=O [gNO, nitric oxide]
LD100 [1]: 10 h
Latent Period [1]: 7 h
−2.5 Log10 (hours) [1]: 9.2 hours
LD100 [2]: 4 h
Latent Period [2]: 3 h
−2.5 Log10 (hours) [2]: 3.3 hours
cytokine level of IL-1b [3]: unaffected
cytokine level of IL-6 [3]: unaffected
cytokine level of IL-8 [3]: unaffected
cytokine level of IL-10 [3]: unaffected
cytokine level of IL-12p70 [3]: unaffected
cytokine level of TNF [3]: unaffected
LD100 [4]: 2 h
Latent Period [4]: 1 h
−2.5 Log10 (hours) [4]: 1.5 hours
pulmonary bioburden and leukocyte infiltration [5]: effective to reduce the pulmonary bioburden and leukocyte infiltration
LD100 [6]: 4 h
Latent Period [6]: 3 h
−2.5 Log10 (hours) [6]: 3.7 hours
eosinophil cell numbers [7]: 0.19 giga/L
LD100 [8]: 6 h
Latent Period [8]: 4 h
−2.5 Log10 (hours) [8]: 5.3 hours
LD100 [9]: 5 h
Latent Period [9]: 3 h
−2.5 Log10 (hours) [9]: 4.2 hours
pulmonary function tests ([10]; during and after gNO administration): did not reveal any abnormalities
DLCO ([10]; vs baseline): did not change from baseline
forced vital capacity (FVC) ([10]; vs baseline): did not change from baseline
residual volume (RV) ([10]; vs baseline): did not change from baseline
total lung capacity (TLC) ([10]; vs baseline): did not change from baseline
FEV1 [10, 20]: did not differ from baseline
maximum mid-expiratory flow (MMEF) [10, 20]: did not differ from baseline
LD100 [11]: 3 h
Latent Period [11]: 1 h
−2.5 Log10 (hours) [11]: 2.1 hours
subjects with SpMet exceeding 7% [12]: 35%
population of planktonic MRSA strains [13]: A reduction in the population of all five MRSA planktonic strains was observed
serum nitrite/nitrate levels vs baseline [14]: no significant differences
Ang-1 plasma level [15]: unaffected
Ang-2/Ang-1 ratio [15]: not affected
Ang-2 plasma level [15]: not affected
reduction in CFU/mL ([16]; every bacteria challenged): ≥ 3 log10 CFU/mL
LD100 (hours), Average [16, 21]: 4.77 h
Latent Period (hours), Average [16, 21]: 2.77 h
−2.5 Log10 (hours), Average [16, 21]: 3.82 hours
LD100 [17]: 6 h
Latent Period [17]: 4 h
−2.5 Log10 (hours) [17]: 4.9 hours
clinical symptoms of bovine respiratory disease [18]: shown to decrease the clinical symptoms
lowest observed SpO2 ([19]; 160 ppm gNO 30 minutes, five times a day, five days): 93%
incidences of hypoxemia (less than 85% SpO2) ([19]; during or after gNO administration): No sudden incidences of hypoxemia
SpO2 levels over time between pretreatment and post treatment ([19]; not significant statistically nor clinically): decreased slightly
